Legend:
COX2 [1] = molecular target: T1, COX2 (Homo sapiens, UniProt P35354); assay: S-nitrosylation of COX2 (biotin switch assay) in HEK293T cells transfected with COX2-myc; assay type: cell-based; conditions: for S-nitrosylation of COX2 by NO donors and H2O2: HEK293T cells transfected with COX2-myc, biotin switch, GSNO 100 μM, SNP 100 μM, Spermine-NO 100 μM, DETA-NO 500 μM
T1 construct: myc; expressed in transfected cells; host or cells: HEK293T
T1 sequence (P35354 18-604): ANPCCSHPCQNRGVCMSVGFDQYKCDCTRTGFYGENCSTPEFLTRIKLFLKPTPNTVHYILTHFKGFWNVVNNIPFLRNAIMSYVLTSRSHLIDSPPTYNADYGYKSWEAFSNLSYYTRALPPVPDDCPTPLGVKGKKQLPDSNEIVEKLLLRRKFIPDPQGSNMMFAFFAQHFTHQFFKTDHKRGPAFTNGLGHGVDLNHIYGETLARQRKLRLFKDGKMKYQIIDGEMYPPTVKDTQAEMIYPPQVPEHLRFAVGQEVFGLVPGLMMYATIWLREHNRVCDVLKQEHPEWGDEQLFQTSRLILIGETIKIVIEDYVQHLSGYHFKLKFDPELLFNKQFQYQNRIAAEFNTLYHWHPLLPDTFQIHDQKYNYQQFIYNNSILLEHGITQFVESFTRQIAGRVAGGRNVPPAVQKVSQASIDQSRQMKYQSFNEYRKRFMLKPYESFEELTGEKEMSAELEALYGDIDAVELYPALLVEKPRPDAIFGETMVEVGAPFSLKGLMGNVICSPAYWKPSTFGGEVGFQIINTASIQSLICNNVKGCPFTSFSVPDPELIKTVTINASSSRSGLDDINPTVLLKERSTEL
From the text: Plasmid Constructions. Full length human cyclooxygenase2-encoding gene (gene bank sequence NM_000963) was purchased from ATCC in pCMV•SPORT6 vector. The sequence was amplified by PCR using primers harboring Sal1/Not1 restriction sites and cloned into the pCMV-Myc vector (Clontech, Palo Alto, Calif.). The murine inducible nitric oxide synthase (accession number NM_010927) cloned into the pcDNA3.1+vector (Invitrogen, Carlsbad, Calif.).
(§1) S-nitrosylation assay. Cells were homogenized by 26G needle in HEN ([…] Hepes-NaOH pH 7.7, 1 mM EDTA, 0.1 mM Neocuproine) buffer and then centrifuged at 1000 g for 10 min at 4° C. Cells lysates (240 μg) was added 4 vol of blocking buffer (9 vol of HEN buffer plus 1 vol 25% SDS, adjusted to 20 mM MMTS with a 2 M stock prepared in dimethylformamide (DMF)) at 50° C. for 20 min with frequent vortexing. The MMTS was then removed by desalting three times with the MicroBioSpin6 column (Bio-Rad, Hercules, Calif.) pre-equilibrated in HEN buffer. To the eluate was added biotin-HPDP prepared fresh as a 4 mM stock in DMSO from a 50 mM stock suspension in DMF. Sodium ascorbate was added to a final concentration of 1 mM. After incubation for 1 h at 25° C., biotinylated proteins were precipitated by streptavidin-agarose beads. The streptavidin-agarose was then pelleted and washed 5 times using HENS buffer. The biotinylated proteins were eluted by SDS-PAGE sample buffer and subjected to Western-blot analysis.

RAW264.7 cells [2] = assay: PGE2 formation in RAW264.7 cells in response to LPS/IFNγ (PGE2 ELISA); assay type: cell-based, murine; conditions: for PGE2 formation in response to LPS/IFNγ: 1400W various concentrations overnight, L-NAME 500 μM, D-NAME 500 μM
Experimental: Measurement of PGE2. Cells were washed with worm PBS (×2) and incubated in the phenol free Dulbecco's modified Eagle's medium supplemented with 20 μM arachidonic acid and 3% albumin for 20 min. Media was collected and PGE2 production was measured with a PGE2 ELISA kit from Assay Design (Ann Arbor, Mich.) according to the manufacturer's instructions.

COX2 [3] = molecular target: T1, COX2; assay: COX2 enzyme activity in cell lysate of COX2-myc transfected HEK293T cells; assay type: biochemical
Experimental: COX2 enzymatic assay. […] COX2 enzymatic activity was measured with a COX assay kit (Cayman Biochemical Inc, Ann Arbor, Mich.) according to the manufacturer's instructions.
To determine whether S-nitrosylation of COX2 alters enzyme activity, we examined COX2 enzyme activity in HEK293T cells transfected with COX2-myc.

iNOS and COX2 binding = molecular target: T2, iNOS and COX2 binding (Mus musculus, UniProt P29477+Q05769); assay: Co-immunoprecipitation of iNOS and COX2 in LPS/IFNγ-induced RAW264.7 cells; assay type: cell-based, murine
T2 construct: endogenous in cells; host or cells: RAW264.7 murine macrophages induced with LPS/IFNγ

COX2 [4] = assay: S-nitrosylation of COX2 in RAW264.7 cells treated with LPS/IFNγ (biotin switch and fluorometric detection); assay type: cell-based, murine; conditions: 1400W 100 μM, fragment transfected
Experimental: as §1
Fluorometric detection of S-nitrosothiols. The methods were modified according to Cook et al.(2) RAW264.7 cells were treated with LPS/IFNγ for overnight and COX2 was immunoprecipitated by donkey anti-rat COX2 antibodies. After that the samples were reacted with 100 μM 2,3-diaminonaphthalene (DAN) in the presence of 100 μM of HgCl2 and incubated in darkness for 30 min at room temperature. The generated fluorescent compound 2,3-napththyltrazole (NAT) was then measured at an excitation wavelength of 375 nm and an emission wavelength of 450 nm.

RAW264.7 cells [5] = assay: Confocal immunofluorescence of endogenous PGE2 in RAW264.7 cells transfected with COX2-myc fragments; assay type: cell-based, murine; conditions: RAW264.7 cells activated by LPS/IFNγ
Experimental: Immunohistochemistry. RAW264.7 cells were transfected with deletion constructs of COX2. Cells were fixed in 4% paraformaldehyde in PBS for 5 min, permeablized in 0.1% Triton X-100 for 10 s, and then rinsed twice in PBS. Coverslips were then blocked in 10% goat serum at room temperature for 1 h and incubated with PGE2 (Cayman Biochemical Inc, Ann Arbor, Mich.) and myc antibodies for 24 hr at 4° C. Rhodamine or fluorescein-conjugated secondary antibodies (Jackson Immunochemicals, West Grove, Pa.) were then added at 10 μg/ml for 1 hr at room temperature as indicated. Coverslips were mounted in ProLong (Molecular Probes, Eugene, Oreg.). Confocal microscopy, in which the immunofluorescent staining is superimposed on phase contrast images, employed a Noran OZ (Noran Instruments, Middleton, Wis.) confocal laser-scanning system, fitted to an Olympus IX-50 fluorescence microscope.

Molecule: NCCCNCCCCN(CCCN)/[N+]([O-])=N/O [spermine-NO]
- S-nitrosylation of COX2 by NO donors and H2O2 (COX2 [1]): elicit S-nitrosylation

Molecule: N=C(N)NCCC[C@H](N)C(=O)O [L-arginine]
- Effects of L-NAME on PGE2 formation (RAW264.7 cells [2]; RAW264.7 cells, LPS/IFNγ, L-NAME 500 μM + L-Arg 1 mM): reversed

Molecule: O=C1O[C@H]([C@@H](O)CO)C(O)=C1O [ascorbic acid]
- S-nitrosylation of COX2-myc in the presence of SNP (COX2 [1]; SNP 200 μM, ASC 500 μM): reversed
- Increase of COX2 activity by SNP (COX2 [3]; SNP 200 μM plus ascorbate 500 μM): prevents the increase
- COX2 activity in preparations not treated by SNP (COX2 [3]; ascorbate 500 μM, no SNP): fails to affect

Molecule: COC(=O)[C@@H](N)CCCNC(=N)N[N+](=O)[O-] [L-NAME, nitro-argininemethylester]
- PGE2 formation in response to LPS/IFNγ (RAW264.7 cells [2]; RAW264.7 cells): inhibition of PGE2 formation

Molecule: CC(=N)NCc1cccc(CN)c1 [1400W]
- Co-precipitation of iNOS and COX2 (iNOS and COX2 binding; RAW264.7 cells induced by LPS/IFNγ, inhibitor 100 μM, immunoprecipitation with anti-iNOS or anti-COX2 antibodies): unaffected
- S-nitrosylation of COX2 (COX2 [4]): prevented
- PGE2 formation in response to LPS/IFNγ (RAW264.7 cells [2]; RAW264.7 cells): inhibited

Molecule: N[C@@H](CCC(=O)N[C@@H](CSN=O)C(=O)NCC(=O)O)C(=O)O [GSNO, nitrosoglutathione]
- S-nitrosylation of COX2 by NO donors and H2O2 (COX2 [1]): elicit S-nitrosylation

Molecule: NCCN(CCN)/[N+]([O-])=N/O [DETA-NONOate]
- S-nitrosylation of COX2 by NO donors and H2O2 (COX2 [1]): elicit S-nitrosylation

Molecule: COC(=O)[C@H](N)CCCN=C(N)N[N+](=O)[O-] [D-NAME]
- PGE2 formation in response to LPS/IFNγ (RAW264.7 cells [2]; RAW264.7 cells): not

Molecule: OO [H2O2]
- S-nitrosylation of COX2 by NO donors and H2O2 (COX2 [1]): does not elicit S-nitrosylation

Molecule: hemoglobin: sequesters freely diffusible NO
- S-nitrosylation of COX2 (COX2 [4]): fails to alter

B1: 484-604: dominant-negative myc-tagged fragment of COX2, amino acids 484-604, which binds iNOS (protein)
chain: IDAVELYPALLVEKPRPDAIFGETMVEVGAPFSLKGLMGNVICSPAYWKPSTFGGEVGFQIINTASIQSLICNNVKGCPFTSFSVPDPELIKTVTINASSSRSGLDDINPTVLLKERSTEL
- Co-precipitation of iNOS and COX2 (iNOS and COX2 binding; fragment transfected into RAW264.7 cells, LPS/IFNγ, immunoprecipitation with anti-iNOS): abolishes
- S-nitrosylation of COX2 (COX2 [4]): decreases
- Reduction of PGE2 formation (RAW264.7 cells [2]; dominant-negative fragment transfected into RAW264.7 cells, LPS/IFNγ): more than 50%
- PGE2 expression level in transfected cell compared to non-transfected cell (immunofluorescent staining) (RAW264.7 cells [5]): reduction

B2: 1-483: myc-tagged fragment of COX2 comprising amino acids 1-483, which does not bind iNOS (protein)
chain: ANPCCSHPCQNRGVCMSVGFDQYKCDCTRTGFYGENCSTPEFLTRIKLFLKPTPNTVHYILTHFKGFWNVVNNIPFLRNAIMSYVLTSRSHLIDSPPTYNADYGYKSWEAFSNLSYYTRALPPVPDDCPTPLGVKGKKQLPDSNEIVEKLLLRRKFIPDPQGSNMMFAFFAQHFTHQFFKTDHKRGPAFTNGLGHGVDLNHIYGETLARQRKLRLFKDGKMKYQIIDGEMYPPTVKDTQAEMIYPPQVPEHLRFAVGQEVFGLVPGLMMYATIWLREHNRVCDVLKQEHPEWGDEQLFQTSRLILIGETIKIVIEDYVQHLSGYHFKLKFDPELLFNKQFQYQNRIAAEFNTLYHWHPLLPDTFQIHDQKYNYQQFIYNNSILLEHGITQFVESFTRQIAGRVAGGRNVPPAVQKVSQASIDQSRQMKYQSFNEYRKRFMLKPYESFEELTGEKEMSAELEALYGD
- Influence on PGE2 formation (RAW264.7 cells [2]; fragment transfected into RAW264.7 cells, LPS/IFNγ): fails to influence
- PGE2 expression level in transfected cell compared to non-transfected cell (immunofluorescent staining) (RAW264.7 cells [5]): does not show a reduction
